Our source for the IC50 values is US20070043036A1, “2-Pyridone derivatives as neutrophil elastase inhibitors and their use” (priority 2003, published 2007).

In this assay the target is T1, Human Neutrophil Elastase (HNE) (Homo sapiens, UniProt P08246).
T1 construct: Human Neutrophil Elastase (HNE) purified from serum; purchased Calbiochem 324681; host or cells: natural source; printed as 'purified from serum'
T1 sequence (P08246 30-247 limits assumed): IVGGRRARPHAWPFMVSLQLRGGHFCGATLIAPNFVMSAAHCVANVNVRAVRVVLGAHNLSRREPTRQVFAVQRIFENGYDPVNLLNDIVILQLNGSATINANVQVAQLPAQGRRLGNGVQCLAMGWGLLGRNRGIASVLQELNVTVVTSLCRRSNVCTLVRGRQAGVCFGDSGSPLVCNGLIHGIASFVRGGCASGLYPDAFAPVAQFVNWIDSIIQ
In words: Human Neutrophil Elastase Quenched-FRET Assay. Format: biochemical. To be noted: HNE purified from serum; substrate MeOSuc-AAPV-AMC; 15 min pre-incubation, 30 min incubation at room temperature; read-out: Inhibition of Human Neutrophil Elastase IC50. The procedure:
Human Neutrophil Elastase Quenched-FRET Assay
The assay uses Human Neutrophil Elastase (HNE) purified from serum (Calbiochem art. 324681; Ref. Baugh, R. J. et al., 1976, Biochemistry. 15, 836-841). HNE was stored in as 50 mM NaOAc, 200 mM NaCl, pH 5.5 with added 30% glycerol at −20° C. The protease substrate used was Elastase Substrate V Fluorogenic, MeOSuc-AAPV-AMC (Calbiochem art. 324740; Ref. Castillo, M. J. et al., 1979, Anal. Biochem. 99, 53-64). The substrate was stored in DMSO at −20° C. The assay additions were as follows: Test compounds and controls were added to black 96-well flat-bottom plates (Greiner 655076), 1 μL in 100% DMSO, followed by 30 μL HNE in assay buffer with 0.01% TritonX-100. The assay buffer constitution was: 100 mM Tris (pH 7.5) and 500 mM NaCl. The enzyme and the compounds were incubated at room temperature for 15 minutes. Then 30 μl substrate in assay buffer was added. The assay was stopped after 30 minutes incubation at room temperature by adding 60 μl stop solution (140 mM acetic acid, 200 mM sodium monochloroacetate, 60 mM sodium acetate, pH 4.3). Fluorescence was measured on a Wallac 1420 Victor 2 instrument at settings: Excitation 380 nm, Emission 460 nm. IC50 values were determined using Xlfit curve fitting using model 205.
As usually defined, the IC50 is the concentration that inhibits the measured activity by half. For the molecule `Cc1c(CNCC2CC2)cc(C(=O)NCc2ccc(S(C)(=O)=O)cc2)c(=O)n1-c1cccc(C(F)(F)F)c1` [Example 58, 5-{[(Cyclopropylmethyl)amino]methyl}-6-methyl-N-[4-(methylsulfonyl)benzyl]-2-oxo-1-[3-(trifluoromethyl)phenyl]-1,2-dihydropyridine-3-carboxamide], the IC50 amounted to 51 nM.

With `CCCN(C)C(=O)c1cc(C(=O)NCc2ccc(S(C)(=O)=O)cc2)c(=O)n(-c2cccc(C(F)(F)F)c2)c1C` [Example 16, 6-Methyl-2-oxo-1-(3-trifluoromethyl-phenyl)-1,2-dihydro-pyridine-3,5-dicarboxylic acid 3-(4-methanesulfonyl-benzylamide)5-(methyl-propyl-amide)], the IC50 is 48 nM.

For `Cc1c(OCCO)cc(C(=O)NCc2ccc(S(C)(=O)=O)cc2)c(=O)n1-c1cccc(C(F)(F)F)c1` [Example 66, 5-(2-Hydroxyethoxy)-6-methyl-N-[4-(methylsulfonyl)benzyl]-2-oxo-1-[3-(trifluoromethyl)phenyl]-1,2-dihydropyridine-3-carboxamide], the IC50 worked out at 22 nM.

As for `Cc1c(CCc2cccnc2)cc(C(=O)NCc2ccc(S(C)(=O)=O)cc2)c(=O)n1-c1cccc(C(F)(F)F)c1` [Example 8, 6-Methyl-N-[4-(methylsulfonyl)benzyl]-2-oxo-5-(2-pyridin-3-ylethyl)-1-[3-(trifluoromethyl)phenyl]-1,2-dihydropyridine-3-carboxamide], the IC50 is 83 nM.

Consider `Cc1c(C(=O)N2CCC[C@@H]2CO)cc(C(=O)NCc2ccc(S(C)(=O)=O)cc2)c(=O)n1-c1cccc(C(F)(F)F)c1` [Example 19, 5-((2R)-2-Hydroxymethyl-pyrrolidine-1-carbonyl)-6-methyl-2-oxo-1-(3-trifluoromethyl-phenyl)-1,2-dihydro-pyridine-3-carboxylic acid 3-(4-methanesulfonyl-benzylamide)], for which the IC50 is 99 nM.
